In patent US12209087B2, “AKT1 modulators” (Alterome Therapeutics, Inc., priority 2022, dated 2025) one finds IC50 data, which are given here for three molecules.

Molecules are shown by their SMILES.

T1 sequence (P31749 whole entry E17K): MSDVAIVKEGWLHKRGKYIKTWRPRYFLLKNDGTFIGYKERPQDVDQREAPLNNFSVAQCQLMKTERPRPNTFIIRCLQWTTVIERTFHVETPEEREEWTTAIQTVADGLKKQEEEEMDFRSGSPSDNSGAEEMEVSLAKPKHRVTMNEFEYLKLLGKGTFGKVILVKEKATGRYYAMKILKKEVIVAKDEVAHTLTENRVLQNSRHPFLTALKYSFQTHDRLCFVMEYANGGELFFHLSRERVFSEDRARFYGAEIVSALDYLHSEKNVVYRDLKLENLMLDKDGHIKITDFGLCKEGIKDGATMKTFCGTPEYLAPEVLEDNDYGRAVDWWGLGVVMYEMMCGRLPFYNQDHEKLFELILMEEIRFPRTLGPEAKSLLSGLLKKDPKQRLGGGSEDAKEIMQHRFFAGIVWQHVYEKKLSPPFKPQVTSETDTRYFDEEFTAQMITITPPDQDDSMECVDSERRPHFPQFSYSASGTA

The assay has as its target T1, full length AKT E17K (Homo sapiens, UniProt P31749, E17K).
T1 construct: host or cells: HEK-293 (ATCC CRL-1573)
In words: NanoBRET Target Engagement (TE) Assay. Particulars: competitive displacement of tracer in cells, read-out: AKT1 E17K IC50. Type of assay: cell-based. In a few lines:
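Compound and tracer incubated 2 h before luminescence at donor 450 nm and acceptor 600 nm, with extracellular signal inhibited. EC50 by sigmoidal variable-slope regression.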
For the molecule `N#Cc1nccc(NC2CCN(Cc3ccc(-n4c(-c5cccnc5N)nc5ccc(-c6ccc(CF)cn6)nc54)cc3)CC2)n1` [Example 648, 4-((1-(4-(2-(2-Aminopyridin-3-yl)-5-(5-(fluoromethyl)pyridin-2-yl)-3H-imidazo[4,5-b]pyridin-3-yl)benzyl)piperidin-4-yl)amino)pyrimidine-2-carbonitrile], the IC50 is less than 15 nM.
In the case of `N#Cc1nccc(NC2CCN(Cc3ccc(-n4c(-c5cccnc5N)nc5ccc(-c6ccc(C(F)F)cn6)nc54)cc3)CC2)n1` [Example 649, 4-((1-(4-(2-(2-Aminopyridin-3-yl)-5-(5-(difluoromethyl)pyridin-2-yl)-3H-imidazo[4,5-b]pyridin-3-yl)benzyl)piperidin-4-yl)amino)pyrimidine-2-carbonitrile] it was less than 15 nM; in that of `N#Cc1nccc(NC2CCN(Cc3ccc(-n4c(-c5cccnc5N)nc5ccc(-c6ccc(C(F)(F)F)cn6)nc54)cc3)CC2)n1` [Example 650, 4-((1-(4-(2-(2-Aminopyridin-3-yl)-5-(5-(trifluoromethyl)pyridin-2-yl)-3H-imidazo[4,5-b]pyridin-3-yl)benzyl)piperidin-4-yl)amino)pyrimidine-2-carbonitrile], 15 to 60 nM.
